Here are results for three compounds from BindingDB's records for doi:10.1016/j.bmcl.2005.01.005 (East China Normal University, 2022).

In test [1] the target is Potassium voltage-gated channel subfamily H member 2 (Homo sapiens, UniProt Q12809). In words: Inhibition of hERG expressed in CHO cells Qpatch-clamp electrophysiology assay. For orientation: hERG is a cardiac potassium channel; its block is linked to QT prolongation.
Test [2] concerns the target Polyketide synthase Pks13 (Mycobacterium tuberculosis (strain ATCC 25618 / H37Rv), UniProt I6X8D2). Kind of test: Inhibition of Mycobacterium tuberculosis Pks13-TE expressed in Escherichia coli BL21(DE3) pLysS.

Sequence of Potassium voltage-gated channel subfamily H member 2 (Q12809 whole entry): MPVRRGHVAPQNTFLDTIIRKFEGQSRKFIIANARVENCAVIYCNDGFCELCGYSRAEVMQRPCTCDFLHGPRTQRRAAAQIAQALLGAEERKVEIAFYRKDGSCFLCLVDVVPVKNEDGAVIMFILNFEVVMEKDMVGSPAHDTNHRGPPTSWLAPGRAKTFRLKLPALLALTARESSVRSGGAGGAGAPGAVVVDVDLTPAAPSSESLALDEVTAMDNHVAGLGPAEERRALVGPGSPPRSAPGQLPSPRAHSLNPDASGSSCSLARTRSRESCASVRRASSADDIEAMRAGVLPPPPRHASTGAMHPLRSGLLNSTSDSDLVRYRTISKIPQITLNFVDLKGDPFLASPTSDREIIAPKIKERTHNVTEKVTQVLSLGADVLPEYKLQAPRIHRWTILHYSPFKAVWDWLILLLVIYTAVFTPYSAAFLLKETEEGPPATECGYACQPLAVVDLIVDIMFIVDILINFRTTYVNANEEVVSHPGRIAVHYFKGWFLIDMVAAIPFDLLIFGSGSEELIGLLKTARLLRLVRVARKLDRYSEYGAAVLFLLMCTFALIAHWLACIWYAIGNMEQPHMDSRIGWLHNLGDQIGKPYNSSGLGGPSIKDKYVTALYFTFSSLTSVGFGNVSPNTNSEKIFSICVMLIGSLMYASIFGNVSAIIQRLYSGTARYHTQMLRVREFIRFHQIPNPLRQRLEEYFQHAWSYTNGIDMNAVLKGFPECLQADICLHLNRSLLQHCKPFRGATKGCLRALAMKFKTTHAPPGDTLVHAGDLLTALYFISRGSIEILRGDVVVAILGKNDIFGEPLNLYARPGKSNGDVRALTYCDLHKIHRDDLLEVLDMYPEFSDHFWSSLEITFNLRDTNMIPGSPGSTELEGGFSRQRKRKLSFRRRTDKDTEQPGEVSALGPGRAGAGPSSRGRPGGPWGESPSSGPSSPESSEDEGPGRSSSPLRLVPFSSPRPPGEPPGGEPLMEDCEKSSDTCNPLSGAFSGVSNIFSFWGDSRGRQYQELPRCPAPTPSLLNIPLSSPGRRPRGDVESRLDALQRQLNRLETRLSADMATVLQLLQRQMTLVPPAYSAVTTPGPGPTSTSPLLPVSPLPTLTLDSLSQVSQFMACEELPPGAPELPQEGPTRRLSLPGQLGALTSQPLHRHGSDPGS
Sequence of Polyketide synthase Pks13 (I6X8D2 whole entry): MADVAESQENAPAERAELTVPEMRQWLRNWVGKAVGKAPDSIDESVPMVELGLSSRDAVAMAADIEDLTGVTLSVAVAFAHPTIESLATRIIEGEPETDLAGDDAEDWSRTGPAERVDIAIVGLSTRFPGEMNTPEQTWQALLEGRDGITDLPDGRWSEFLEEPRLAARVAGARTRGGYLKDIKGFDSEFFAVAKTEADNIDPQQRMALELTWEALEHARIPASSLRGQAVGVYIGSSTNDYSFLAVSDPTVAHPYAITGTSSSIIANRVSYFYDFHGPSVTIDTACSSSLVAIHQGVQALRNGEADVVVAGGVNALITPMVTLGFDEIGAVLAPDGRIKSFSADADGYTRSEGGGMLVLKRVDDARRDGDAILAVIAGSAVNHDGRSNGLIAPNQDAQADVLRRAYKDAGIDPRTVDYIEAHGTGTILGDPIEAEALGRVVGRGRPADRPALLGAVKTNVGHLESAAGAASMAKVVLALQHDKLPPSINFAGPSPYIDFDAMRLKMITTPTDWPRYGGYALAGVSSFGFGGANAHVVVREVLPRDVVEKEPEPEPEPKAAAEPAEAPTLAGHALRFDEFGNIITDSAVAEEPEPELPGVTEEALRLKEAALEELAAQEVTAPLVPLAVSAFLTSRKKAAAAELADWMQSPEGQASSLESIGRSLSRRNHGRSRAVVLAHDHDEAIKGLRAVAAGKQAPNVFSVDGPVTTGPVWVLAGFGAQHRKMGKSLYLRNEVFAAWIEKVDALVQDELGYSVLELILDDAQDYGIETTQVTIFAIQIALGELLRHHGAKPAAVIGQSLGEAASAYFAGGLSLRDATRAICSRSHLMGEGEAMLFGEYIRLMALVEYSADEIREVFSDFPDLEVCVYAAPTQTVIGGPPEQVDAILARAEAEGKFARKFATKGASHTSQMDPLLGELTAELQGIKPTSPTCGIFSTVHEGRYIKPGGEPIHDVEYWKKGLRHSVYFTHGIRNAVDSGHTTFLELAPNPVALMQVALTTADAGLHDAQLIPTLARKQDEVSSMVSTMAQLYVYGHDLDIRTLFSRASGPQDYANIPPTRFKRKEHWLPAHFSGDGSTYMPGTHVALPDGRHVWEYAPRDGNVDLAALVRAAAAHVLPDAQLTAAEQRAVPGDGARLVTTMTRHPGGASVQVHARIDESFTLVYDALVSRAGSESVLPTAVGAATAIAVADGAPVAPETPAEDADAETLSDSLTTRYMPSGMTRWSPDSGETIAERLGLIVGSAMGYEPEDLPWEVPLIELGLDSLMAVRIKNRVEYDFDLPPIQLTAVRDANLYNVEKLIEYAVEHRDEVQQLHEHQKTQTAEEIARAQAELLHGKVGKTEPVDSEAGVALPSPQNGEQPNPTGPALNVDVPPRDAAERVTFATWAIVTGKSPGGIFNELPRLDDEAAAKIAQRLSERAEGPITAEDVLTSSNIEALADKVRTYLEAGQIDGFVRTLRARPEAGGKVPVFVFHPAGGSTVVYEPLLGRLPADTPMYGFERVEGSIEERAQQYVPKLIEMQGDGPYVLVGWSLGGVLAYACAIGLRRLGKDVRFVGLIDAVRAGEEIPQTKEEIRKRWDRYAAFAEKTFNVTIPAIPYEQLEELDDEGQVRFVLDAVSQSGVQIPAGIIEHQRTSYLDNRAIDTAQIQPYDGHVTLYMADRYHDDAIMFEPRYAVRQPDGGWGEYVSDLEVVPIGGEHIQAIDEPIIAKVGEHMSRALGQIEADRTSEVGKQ

What is called IC50 is the concentration needed to halve the response being measured. Regarding `O=c1oc2cc(O)ccc2c2oc3ccc(O)c(CN4CCCCC4)c3c12`, the half-inhibitory concentration (IC50) in test [1] is greater than 30000 nM.

In test [2], `O=c1oc2cc(O)ccc2c2oc3ccc(O)c(CN4CCC(F)CC4)c3c12` returned a concentration for half-maximal inhibition (IC50) of 1550 nM.

As to `O=c1oc2cc(O)ccc2c2oc3ccc4c(c3c12)CN(C1CCCC1)CO4`, the IC50 in test [2] turned out to be 1300 nM; in test [1], 520 nM.
